{"source": "ChEMBL document CHEMBL2321724", "about": "(J Med Chem, 2013)", "key": {"[1]": {"target": "T1, Voltage-gated inwardly rectifying potassium channel KCNH2 (Homo sapiens, UniProt Q12809)", "T1 sequence (Q12809 whole entry)": "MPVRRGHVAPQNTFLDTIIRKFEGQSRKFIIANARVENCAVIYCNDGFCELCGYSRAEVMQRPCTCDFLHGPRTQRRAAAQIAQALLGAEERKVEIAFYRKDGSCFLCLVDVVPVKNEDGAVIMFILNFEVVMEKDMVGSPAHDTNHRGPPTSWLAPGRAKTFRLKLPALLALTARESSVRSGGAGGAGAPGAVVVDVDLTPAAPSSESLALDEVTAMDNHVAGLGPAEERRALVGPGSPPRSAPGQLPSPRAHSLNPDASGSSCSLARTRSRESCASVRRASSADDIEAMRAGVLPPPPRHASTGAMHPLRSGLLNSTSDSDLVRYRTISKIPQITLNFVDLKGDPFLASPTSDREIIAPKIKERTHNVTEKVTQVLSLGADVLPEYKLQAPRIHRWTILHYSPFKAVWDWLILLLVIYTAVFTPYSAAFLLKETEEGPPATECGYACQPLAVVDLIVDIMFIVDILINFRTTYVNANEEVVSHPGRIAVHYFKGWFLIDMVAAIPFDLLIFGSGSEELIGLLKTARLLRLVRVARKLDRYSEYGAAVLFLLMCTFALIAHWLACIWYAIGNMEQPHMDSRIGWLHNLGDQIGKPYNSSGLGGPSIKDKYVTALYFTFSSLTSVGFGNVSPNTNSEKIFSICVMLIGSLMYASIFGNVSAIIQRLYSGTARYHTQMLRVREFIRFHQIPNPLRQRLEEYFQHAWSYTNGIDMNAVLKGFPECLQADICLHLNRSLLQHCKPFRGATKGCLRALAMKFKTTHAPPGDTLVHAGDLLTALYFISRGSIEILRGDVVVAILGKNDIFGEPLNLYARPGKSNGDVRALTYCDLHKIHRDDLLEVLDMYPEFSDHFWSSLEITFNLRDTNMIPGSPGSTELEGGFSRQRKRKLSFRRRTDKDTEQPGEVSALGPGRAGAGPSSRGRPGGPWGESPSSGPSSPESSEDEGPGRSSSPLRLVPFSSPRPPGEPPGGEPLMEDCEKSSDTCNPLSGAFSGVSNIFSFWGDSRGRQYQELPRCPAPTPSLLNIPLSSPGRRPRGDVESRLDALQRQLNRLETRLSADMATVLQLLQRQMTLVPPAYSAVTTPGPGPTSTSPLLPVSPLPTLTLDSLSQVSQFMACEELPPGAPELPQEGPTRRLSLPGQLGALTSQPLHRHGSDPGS", "test": "Displacement of [3H]astemizole from human ERG K+ channel expressed in HEK293 cells by scintillation spectrophotometric analysis"}, "hERG (KCNH2) K+ channel [2]": {"target": "T2, hERG (KCNH2) K+ channel (Homo sapiens, UniProt Q12809)", "T2 sequence (Q12809 whole entry)": "as above", "test": "Displacement of [3H]astemizole from human ERG K+ channel expressed in HEK293 cells at 10 uM by scintillation spectrophotometric analysis"}, "hERG (KCNH2) K+ channel [3]": {"target": "T2, hERG (KCNH2) K+ channel", "test": "Assay index, ratio of IC50 for human ERG K+ channel expressed in HEK293 cells by patch clamp assay to IC50 for human ERG K+ channel expressed in HEK293 cells by radioligand binding assay", "type": "cell-based", "settings": "HEK293 cells expressing human ERG K+ channel, read-out: Ratio IC50"}, "[4]": {"target": "T1, Voltage-gated inwardly rectifying potassium channel KCNH2", "test": "Inhibition of human ERG K+ channel expressed in HEK293 cells after 15 mins by patch clamp assay", "type": "cell-based"}, "[5]": {"settings": "HEK293 cells expressing human ERG K+ channel, probe [3H]astemizole"}}}
{"smiles": "Cc1ccc(CCc2cccc(CCc3ccc(C)cc3)n2)cc1", "values": [{"measurement": "IC50", "setting": "[1]; human, hek293", "value": "> 10", "unit": "µM"}]}
{"smiles": "Cc1ccc(COCc2cccc(COCc3ccc(C)cc3)[n+]2C)cc1", "values": [{"measurement": "IC50", "setting": "[1]", "value": 0.107, "unit": "µM"}]}
{"smiles": "C[n+]1c(C#CCOc2ccccc2Cl)cccc1C#CCOc1ccccc1Cl", "values": [{"measurement": "inhibition at 10 µM", "setting": "hERG (KCNH2) K+ channel [2]; [5]", "value": 16, "unit": "%"}]}
{"smiles": "C[n+]1c(C#Cc2ccccc2Cl)cccc1C#Cc1ccccc1Cl", "values": [{"measurement": "IC50", "setting": "[1]", "value": 3.9, "unit": "µM"}]}
{"smiles": "Cc1ccc(CCCOCc2cccc(COCCCc3ccc(C)cc3)[n+]2C)cc1", "values": [{"measurement": "selectivity ratio", "setting": "hERG (KCNH2) K+ channel [3]", "value": 8.1}, {"measurement": "IC50", "setting": "[4]", "value": 0.194, "unit": "µM"}, {"measurement": "IC50", "setting": "[1]", "value": 0.024, "unit": "µM"}]}
{"smiles": "c1ccc(OCc2cccc(COc3ccccc3)n2)cc1", "values": [{"measurement": "inhibition at 10 µM", "setting": "hERG (KCNH2) K+ channel [2]; hek293", "value": 15, "unit": "%"}]}
{"smiles": "C[n+]1c(CCCOc2ccccc2)cccc1CCCOc1ccccc1", "values": [{"measurement": "IC50", "setting": "[1]", "value": 0.208, "unit": "µM"}]}
{"smiles": "Cc1ccc(OCCCc2cc(N)cc(CCCOc3ccc(C)cc3)n2)cc1", "values": [{"measurement": "selectivity ratio", "setting": "hERG (KCNH2) K+ channel [3]", "value": 0.86}, {"measurement": "IC50", "setting": "[4]", "value": 0.146, "unit": "µM"}, {"measurement": "IC50", "setting": "[1]", "value": 0.17, "unit": "µM"}]}
{"smiles": "C[n+]1c(C#Cc2cccc(Cl)c2)cccc1C#Cc1cccc(Cl)c1", "values": [{"measurement": "IC50", "setting": "[1]", "value": 4.02, "unit": "µM"}]}
{"smiles": "Cc1ccc(Cc2ccnc(COc3ccc(C)cc3)c2)cc1", "values": [{"measurement": "inhibition at 10 µM", "setting": "hERG (KCNH2) K+ channel [2]; [5]", "value": -3, "unit": "%"}, {"measurement": "IC50", "setting": "[1]", "value": "> 10", "unit": "µM"}]}
{"smiles": "Cc1ccc(CCOCCCc2cccc(CCCOCCc3ccc(C)cc3)[n+]2C)cc1", "values": [{"measurement": "IC50", "setting": "[1]", "value": 0.371, "unit": "µM"}]}
{"smiles": "C(#Cc1cccc(C#Cc2ccccc2)n1)c1ccccc1", "values": [{"measurement": "inhibition at 10 µM", "setting": "hERG (KCNH2) K+ channel [2]; [5]", "value": -11, "unit": "%"}]}
{"smiles": "C[n+]1c(C#Cc2ccc(-c3ccccc3)cc2)cccc1C#Cc1ccc(-c2ccccc2)cc1", "values": [{"measurement": "IC50", "setting": "[1]", "value": 0.294, "unit": "µM"}]}
{"smiles": "CCCCCCC#Cc1cccc(C#CCCCCCC)[n+]1C", "values": [{"measurement": "IC50", "setting": "[1]", "value": 1.99, "unit": "µM"}]}
{"smiles": "Cc1ccc(C#Cc2cccc(C#Cc3ccc(C)cc3)[n+]2C)cc1", "values": [{"measurement": "IC50", "setting": "[1]", "value": 0.285, "unit": "µM"}]}
{"smiles": "c1ccc(CCc2cccc(CCc3ccccc3)c2)cc1", "values": [{"measurement": "inhibition at 10 µM", "setting": "hERG (KCNH2) K+ channel [2]; [5]", "value": 8, "unit": "%"}]}
{"smiles": "Cc1ccc(Cc2cccc(COc3ccc(C)cc3)n2)cc1", "values": [{"measurement": "inhibition at 10 µM", "setting": "hERG (KCNH2) K+ channel [2]; hek293", "value": 9, "unit": "%"}]}
{"smiles": "Cc1ccc(CCOCc2cccc(COCCc3ccc(C)cc3)[n+]2C)cc1", "values": [{"measurement": "IC50", "setting": "[1]", "value": 0.135, "unit": "µM"}]}
{"smiles": "Cc1ccc(OCCCc2cccc(CCCOc3ccc(C)cc3)[n+]2C)cc1", "values": [{"measurement": "selectivity ratio", "setting": "hERG (KCNH2) K+ channel [3]", "value": 11.2}, {"measurement": "IC50", "setting": "[4]", "value": 0.962, "unit": "µM"}, {"measurement": "IC50", "setting": "[1]", "value": 0.086, "unit": "µM"}]}
{"smiles": "C[n+]1c(COc2ccccc2)cccc1COc1ccccc1", "values": [{"measurement": "IC50", "setting": "[1]", "value": 0.767, "unit": "µM"}]}
{"smiles": "c1ccc(CCc2cccc(CCc3ccccc3)n2)cc1", "values": [{"measurement": "IC50", "setting": "[1]", "value": 1.61, "unit": "µM"}]}
